# According to ChEMBL document CHEMBL1201862, “PubChem BioAssay data set” (2004):
#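 Exposure lasted 48 hours, with cells grown in 96-well plates and compounds tested at five concentrations. GI50: concentration for 50% inhibition of growth.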 The source made the active and inactive calls. No stated cut-off is given here; in the data, active = GI50 up to about 1.1 µM and inactive = higher.
# What was measured:
# Assay in all cases: NCI anticancer screen, dose series, 48 h
# [1] = test system: SNB-75
# [2] = test system: RPMI-8226
# [3] = test system: M19-MEL
# [4] = test system: SF-539
# [5] = test system: HOP-92
# [6] = test system: NCI-H460
# [7] = test system: KM12
# [8] = test system: LXFL 529
# [9] = test system: Malme-3M
# [10] = test system: SK-MEL-5
# [11] = test system: SK-MEL-28
# [12] = test system: A549
# [13] = test system: DLD-1
# [14] = test system: SNB-19
# [15] = test system: OVCAR-3
# [16] = test system: NCI-H226
# [17] = test system: XF498
# [18] = test system: HL-60
# [19] = test system: K562
# [20] = test system: SW-620
# [21] = test system: TK-10
# [22] = test system: UO-31
# [23] = test system: M14
# [24] = test system: OVCAR-4
# [25] = test system: U-251
# [26] = test system: COLO 205
# [27] = test system: SK-MEL-2
# [28] = test system: SR
# [29] = test system: HT-29
# [30] = test system: NCI-H23
# [31] = test system: HOP-62
# [32] = test system: DU-145
# [33] = test system: OVCAR-5
# [34] = test system: MOLT-4
# [35] = test system: SK-OV-3
# [36] = test system: OVCAR-8
# [37] = test system: LOX IMVI
# [38] = test system: HCC 2998
# [39] = test system: SF-295
# [40] = test system: MDA-MB-435
# [41] = test system: HCT-15
# [42] = test system: MCF7
# [43] = test system: CAKI-1
# [44] = test system: BT-549
# [45] = test system: CCRF-CEM
# [46] = test system: EKVX
# [47] = test system: Hs-578T
# [48] = test system: SF-268
# [49] = test system: HCT-116
# [50] = test system: 786-0
# [51] = test system: ACHN
# [52] = test system: UACC-62
# [53] = test system: SN12C
# [54] = test system: NCI/ADR-RES
# [55] = test system: MDA-MB-231
# [56] = test system: NCI-H522
# [57] = test system: A498
# [58] = test system: MDA-N
# [59] = test system: PC-3
# [60] = test system: UACC-257
# [61] = test system: RXF 393
# [62] = test system: T47D
# [63] = test system: IGROV-1
compound,measurement,setting,value
COc1cc(C2c3cc4c(cc3[C@@H](NCCN(C)C)C3COC(=O)[C@H]23)OCO4)cc(OC)c1O (some centres undefined),GI50,[1],0.13 µM (active)
same,GI50,[2],0.29 µM (active)
same,GI50,[3],0.91 µM (active)
same,GI50,[4],0.0585 µM (active)
same,GI50,[5],0.0303 µM (active)
same,GI50,[6],< 0.01 µM (active)
same,GI50,[7],0.931 µM (active)
same,GI50,[8],1.82 µM (inactive)
same,GI50,[9],0.36 µM (active)
same,GI50,[10],0.133 µM (active)
same,GI50,[11],0.309 µM (active)
same,GI50,[12],0.0207 µM (active)
same,GI50,[13],1.46 µM (inactive)
same,GI50,[14],0.598 µM (active)
same,GI50,[15],1.34 µM (inactive)
same,GI50,[16],0.0156 µM (active)
same,GI50,[17],0.2 µM (active)
same,GI50,[18],0.0127 µM (active)
same,GI50,[19],0.407 µM (active)
same,GI50,[20],0.296 µM (active)
same,GI50,[21],1.69 µM (inactive)
same,GI50,[22],0.284 µM (active)
same,GI50,[23],0.255 µM (active)
same,GI50,[24],3.09 µM (inactive)
same,GI50,[25],0.0687 µM (active)
CC1(c2ccc(Cl)cc2)N=C(NCCO)c2ccccc21 (centres undefined),GI50,[26],13.5 µM (inactive)
same,GI50,[27],18.2 µM (inactive)
same,GI50,[1],19.5 µM (inactive)
same,GI50,[2],2.74 µM (inactive)
same,GI50,[28],16.4 µM (inactive)
same,GI50,[29],5.74 µM (inactive)
same,GI50,[4],2.25 µM (inactive)
same,GI50,[5],8.53 µM (inactive)
same,GI50,[30],13.8 µM (inactive)
same,GI50,[6],13.3 µM (inactive)
same,GI50,[31],25.1 µM (inactive)
same,GI50,[7],15.7 µM (inactive)
same,GI50,[32],2.07 µM (inactive)
same,GI50,[9],17.9 µM (inactive)
same,GI50,[10],14.8 µM (inactive)
same,GI50,[33],19.2 µM (inactive)
same,GI50,[11],9.75 µM (inactive)
same,GI50,[12],23.7 µM (inactive)
same,GI50,[34],8.49 µM (inactive)
same,GI50,[35],88.7 µM (inactive)
same,GI50,[36],51.8 µM (inactive)
same,GI50,[37],13.8 µM (inactive)
same,GI50,[38],12.2 µM (inactive)
same,GI50,[39],8.36 µM (inactive)
same,GI50,[14],14.7 µM (inactive)
same,GI50,[40],12.2 µM (inactive)
same,GI50,[41],26.9 µM
same,GI50,[42],20.7 µM (inactive)
same,GI50,[15],56.1 µM (inactive)
same,GI50,[43],> 71 µM (inactive)
same,GI50,[44],42 µM (inactive)
same,GI50,[16],11.1 µM (inactive)
same,GI50,[45],2.9 µM (inactive)
same,GI50,[46],> 100 µM (inactive)
same,GI50,[47],37.8 µM (inactive)
same,GI50,[48],42.9 µM (inactive)
same,GI50,[49],5.37 µM (inactive)
same,GI50,[50],12.5 µM (inactive)
same,GI50,[51],29.4 µM (inactive)
same,GI50,[52],12 µM (inactive)
same,GI50,[18],3.23 µM (inactive)
same,GI50,[19],6.61 µM (inactive)
same,GI50,[20],10.5 µM (inactive)
same,GI50,[53],16.9 µM (inactive)
same,GI50,[21],41.4 µM (inactive)
same,GI50,[54],99.5 µM (inactive)
same,GI50,[22],17.8 µM (inactive)
same,GI50,[55],19.1 µM (inactive)
same,GI50,[23],9.84 µM (inactive)
same,GI50,[56],26.4 µM (inactive)
same,GI50,[57],18.6 µM (inactive)
same,GI50,[24],67.9 µM (inactive)
same,GI50,[58],10.7 µM (inactive)
same,GI50,[59],32.7 µM (inactive)
same,GI50,[60],17.1 µM (inactive)
same,GI50,[61],16.3 µM (inactive)
same,GI50,[25],16.9 µM (inactive)
same,GI50,[62],15.9 µM (inactive)
same,GI50,[63],22.9 µM (inactive)
